Legend:
[1] = physchem
Description: Ionization constant, pKa of the compound by UV spectrophotometric analysis

[2] = in vivo; conditions: C3H X DBA2 F1, mouse, ip
Description: Toxicity in ip dosed C3H X DBA2 F1 mouse allografted with mouse L1210 cells through sc

[3] = in vivo; conditions: C3H X DBA2 F1, mouse, ip; remark: listed apart in the source
Description: Toxicity in ip dosed C3H X DBA2 F1 mouse allografted with mouse L1210 cells through ip

SMILES | pKa [1] | MTD [2] | MTD [3]
CN(C)CCCCS(=O)(=O)Nc1ccc(Nc2c3ccccc3nc3cc([N+](=O)[O-])ccc23)cc1.Cl | 5.36 | 10 mg/kg/day | –
C[n+]1c2ccccc2c(Nc2ccc(NS(=O)(=O)CCNC(=O)CCN)cc2)c2ccccc21 | 6.7 | – | –
N=C(N)NCCCCS(=O)(=O)Nc1ccc(Nc2c3ccccc3nc3cc([N+](=O)[O-])ccc23)cc1 | 5.36 | – | –
Cl.NCCCCCS(=O)(=O)Nc1ccc(Nc2c3ccccc3nc3ccccc23)cc1 | 6.92 | – | 60 mg/kg/day
NCCC(=O)NCCS(=O)(=O)Nc1ccc(Nc2c3ccccc3nc3cc([N+](=O)[O-])ccc23)cc1 | 5.35 | – | –
N=C(N)NCCCS(=O)(=O)Nc1ccc(Nc2c3ccccc3nc3cc([N+](=O)[O-])ccc23)cc1 | 5.34 | – | –
NCCCCS(=O)(=O)Nc1ccc(Nc2c3ccccc3nc3ccccc23)cc1 | 6.91 | – | –
C[n+]1c2ccccc2c(Nc2ccc(NS(=O)(=O)CCCCN)cc2)c2ccccc21 | 6.72 | – | –
Cl.N=C(N)NCCCCS(=O)(=O)Nc1ccc(Nc2c3ccccc3nc3cc(Cl)ccc23)cc1 | 6.33 | – | 150 mg/kg/day
NCCC(=O)NCCS(=O)(=O)Nc1ccc(Nc2c3ccccc3nc3ccccc23)cc1 | 6.91 | – | –
N=C(N)NCCCCCS(=O)(=O)Nc1ccc(Nc2c3ccccc3nc3cc([N+](=O)[O-])ccc23)cc1 | 5.36 | – | –
Cl.NCCCS(=O)(=O)Nc1ccc(Nc2c3ccccc3nc3cc([N+](=O)[O-])ccc23)cc1 | 5.33 | 20 mg/kg/day | –
COc1cc(NS(=O)(=O)CCCCN)ccc1Nc1c2ccccc2nc2cc([N+](=O)[O-])ccc12 | 5.58 | – | –
NCCCCS(=O)(=O)Nc1ccc(Nc2c3ccccc3nc3cc([N+](=O)[O-])ccc23)cc1 | 5.34 | – | –
Cl.N=C(N)NCCCCS(=O)(=O)Nc1ccc(Nc2c3ccccc3nc3ccccc23)cc1 | 6.91 | – | 75 mg/kg/day
Cl.NCCCCCCCCS(=O)(=O)Nc1ccc(Nc2c3ccccc3nc3cc([N+](=O)[O-])ccc23)cc1 | 5.35 | – | 30 mg/kg/day
N=C(N)NCCCCCCS(=O)(=O)Nc1ccc(Nc2c3ccccc3nc3cc([N+](=O)[O-])ccc23)cc1 | 5.35 | – | –
NCCS(=O)(=O)Nc1ccc(Nc2c3ccccc3nc3cc([N+](=O)[O-])ccc23)cc1 | 5.25 | – | –
Nc1c2ccccc2nc2ccccc12 [AMINACRINE] | 9.6 | – | –

SMILES | pKa [1] | MTD [2] | MTD [3]
CC(=O)Nc1ccc2c(Nc3ccc(NS(=O)(=O)CCCCN)cc3)c3ccccc3nc2c1 | 7.16 | – | –
Cc1cccc2c(Nc3ccc(NS(=O)(=O)CCCCN)cc3)c3ccc([N+](=O)[O-])cc3nc12.Cl | 5.44 | – | 200 mg/kg/day
CS(=O)(=O)Nc1ccc(Nc2c3ccccc3nc3ccccc23)cc1 | 7.19 | – | –
Cc1cccc2c(Nc3ccc(NS(=O)(=O)CCCCNC(=N)N)cc3)c3cccc(C)c3nc12 | 6.41 | – | –
C[n+]1c2ccccc2c(Nc2ccc(NS(C)(=O)=O)cc2)c2ccc(N)cc21 | 10.1 | – | –
Cl.NCCS(=O)(=O)Nc1ccc(Nc2c3ccccc3nc3ccccc23)cc1 | 6.62 | – | 35 mg/kg/day
NCCCCCCCS(=O)(=O)Nc1ccc(Nc2c3ccccc3nc3cc([N+](=O)[O-])ccc23)cc1 | 5.36 | – | –
CC(=O)Nc1ccc2c(Nc3ccc(NS(=O)(=O)CCNC(=N)N)cc3)c3ccc([N+](=O)[O-])cc3nc2c1 | 5.55 | – | –
Cl.NCCCCCCS(=O)(=O)Nc1ccc(Nc2c3ccccc3nc3ccccc23)cc1 | 6.92 | – | 65 mg/kg/day
Cl.NCCCCCCS(=O)(=O)Nc1ccc(Nc2c3ccccc3nc3cc([N+](=O)[O-])ccc23)cc1 | 5.34 | 2 mg/kg/day | –
Cl.NCCCCCS(=O)(=O)Nc1ccc(Nc2c3ccccc3nc3cc([N+](=O)[O-])ccc23)cc1 | 5.36 | 44 mg/kg/day | –
N=C(N)NCCCS(=O)(=O)Nc1ccc(Nc2c3ccc([N+](=O)[O-])cc3nc3cc([N+](=O)[O-])ccc23)cc1 | 3.68 | – | –
NCC(=O)NCCS(=O)(=O)Nc1ccc(Nc2c3ccccc3nc3ccccc23)cc1 | 6.9 | – | –
C[n+]1c2ccccc2c(Nc2ccc(NS(=O)(=O)CCCCNC(=N)N)cc2)c2ccccc21.[Br-] | 6.69 | – | 150 mg/kg/day
NCCCS(=O)(=O)Nc1ccc(Nc2c3ccccc3nc3ccccc23)cc1 | 6.89 | – | –
Cc1ccc2c(Nc3ccc(NS(=O)(=O)CCCCN)cc3)c3ccc([N+](=O)[O-])cc3nc2c1C | 5.52 | – | –
N=C(N)NCCS(=O)(=O)Nc1ccc(Nc2c3ccccc3nc3cc([N+](=O)[O-])ccc23)cc1 | 5.26 | – | –
CC(=O)Nc1ccc2c(Nc3ccc(NS(=O)(=O)CCCNC(=N)N)cc3)c3ccc([N+](=O)[O-])cc3nc2c1 | 5.58 | – | –
NCC(=O)NCCS(=O)(=O)Nc1ccc(Nc2c3ccccc3nc3cc([N+](=O)[O-])ccc23)cc1 | 5.34 | – | –

— ChEMBL document CHEMBL3272170, “Potential antitumor agents. 24. Dicationic analogues of the 4'-(9-acridinylamino)alkanesulfonanilides” (J Med Chem, 1977)
